# Data: patent publication US6794400B2, “4-substituted-1-(arylmethylidene)thiosemicarbazide, 4-substituted-1-(arylcarbonyl)thiosemicarbazide and analogs as activators of caspases and inducers of apoptosis and the use thereof” (Cytovia, Inc., priority 2001, dated 2004)
# Columns and labels:
# T-47D = test: Caspase cascade activation (N-(Ac-DEVD)-N'-ethoxycarbonyl-R110 fluorogenic substrate) in T-47D cells; format: cell-based, human; conditions: 48 h incubation; for Caspase activity Ratio (net RFU of test compound to control): 0.016 to 10 μM final; for EC50: Homo sapiens, T47D, read-out: Caspase potency EC50
# Description: (§1) Human breast cancer cell lines T47D and ZR-75-1 were grown according to media component mixtures designated by American Type Culture Collection+10% FCS (Invitrogen Corporation), in a 5% CO2-95% humidity incubator at 37° C. T-47D and ZR-75-1 cells were maintained at a cell density between 50 and 80% confluency at a cell density of 0.1 to 0.6×10^6 cells/mL. Cells were harvested at 600×g and resuspended at 0.65×10^6 cells/mL into appropriate media+10% FCS. An aliquot of 45 μL of cells was added to a well of a 96-well microtiter plate containing 2.5 μL of a 10% DMSO in RPMI-1640 media solution containing 0.16 to 100 μM of 4-(bicyclo[2.2.1]hept-5-en-2-yl)-1-(pyridin-2-ylmethylidene)thiosemicarbazide or other test compound (0.016 to 10 μM final). An aliquot of 22.5 μL of cells was added to a well of a 384-well microtiter plate containing 2.5 μL of a 10% DMSO in RPMI-1640 media solution without test compound as the control sample. The samples were mixed by agitation and then incubated at 37° C. for 48 h in a 5% CO2-95% humidity incubator. After incubation, the samples were removed from the incubator and 25 μL of a solution containing 14 μM of N-(Ac-DEVD)-N′-ethoxycarbonyl-R110 (SEQ ID NO:1) fluorogenic substrate (Maxim Pharmaceuticals, Inc.; WO99/18856), 20% sucrose (Sigma), 20 mM DTT (Sigma), 200 mM NaCl (Sigma), 40 mM Na PIPES buffer pH 7.2 (Sigma), and 500 μg/ml lysolecithin (Calbiochem) was added. The samples were mixed by agitation and incubated at room temperature. Using a fluorescent plate reader (Model SpectraMax Gemini, Molecular Devices), an initial reading (T=0) was made approximately 1-2 min after addition of the substrate solution, employing excitation at 485 nm and emission at 530 nm, to determine the background fluorescence of the control sample. After the 3 h incubation, the samples were read for fluorescence as above (T=3 h).
# (§2) The Relative Fluorescence Unit values (RFU) were used to calculate the sample readings as follows:
# (§3) RFU(T=3 h)−Control RFU(T=0)=Net RFU(T=3 h)
# (§4) The activity of caspase cascade activation was determined by the ratio of the net RFU value for 4-(bicyclo[2.2.1]hept-5-en-2-yl)-1-(pyridin-2-ylmethylidene)thiosemicarbazide or other test compound to that of control samples. The EC50 (nM) was determined by a sigmoidal dose-response calculation (Prism 2.0, GraphPad Software Inc.).
# ZR-75-1 = test: Caspase cascade activation (N-(Ac-DEVD)-N'-ethoxycarbonyl-R110 fluorogenic substrate) in ZR-75-1 cells; format: cell-based, human; conditions: 48 h incubation; for Caspase activity Ratio (net RFU of test compound to control): 0.016 to 10 μM final
# Description: as §1, §2, §3, §4
# T47-D = test: Cell proliferation assay (CellTiter 96 AQUEOUS One) GI50, T47-D; format: cell-based; conditions: Homo sapiens, T47D; T47-D cells, 48 h
# Description: (§5) All the cell lines were grown according to the conditions recommended by American Type Culture Collection. An aliquot of 90 μL of cells (2.2×10^4 cells/mL) was added to a well of a 96-well microtiter plate containing 10 μL of a 10% DMSO in RPMI-1640 media solution containing 1 nM to 100 μM of 4-(bicyclo[2.2.1]hept-5-en-2-yl)-1-(pyridin-2-ylmethylidene)thiosemicarbazide (0.1 nM to 10 μM final). An aliquot of 90 μL of cells was added to a well of a 96-well microtiter plate containing 10 μL of a 10% DMSO in RPMI-1640 media solution without compound as the control sample for maximal cell proliferation (AMax). The samples were mixed by agitation and then incubated at 37° C. for 48 h in a 5% CO2-95% humidity incubator. After incubation, the samples were removed from the incubator and 20 μL of CellTiter 96 AQUEOUS One Solution Cell Proliferation™ reagent (Promega) was added. […] Using an absorbance plate reader (Model 1420 Wallac Instruments), an initial reading (T=0) was made approximately 1-2 min after addition of the solution, employing absorbance at 490 nm. This determines the possible background absorbance of the test compounds. No absorbance for 4-(bicyclo[2.2.1]hept-5-en-2-yl)-1-(pyridin-2-ylmethylidene)thiosemicarbazide was found at 490 nm. After the 2-4 h incubation, the samples were read for absorbance as above (ATest). […]
# MCF-7 = test: Cell proliferation assay GI50, MCF-7; format: cell-based; conditions: Homo sapiens, MCF7; MCF-7 cells, 48 h
# Description: as §5
# SK-Br-3 = test: Cell proliferation assay GI50, SK-Br-3; format: cell-based; conditions: Homo sapiens; SK-Br-3 cells, 48 h
# Description: as §5
# DLD-1 = test: Cell proliferation assay GI50, DLD-1; format: cell-based; conditions: Homo sapiens; DLD-1 cells, 48 h
# Description: as §5
# NCI-H23 = test: Cell proliferation assay GI50, NCI-H23; format: cell-based; conditions: Homo sapiens; NCI-H23 cells, 48 h
# Description: as §5
# K562 = test: Cell proliferation assay GI50, K562; format: cell-based; conditions: Homo sapiens; K562 cells, 48 h
# Description: as §5
# MDA-MB-231 = test: Cell proliferation assay GI50, MDA-MB-231; format: cell-based; conditions: Homo sapiens; MDA-MB-231 cells, 48 h
# Description: as §5
# PC-3 = test: Cell proliferation assay GI50, PC-3; format: cell-based; conditions: Homo sapiens; PC-3 cells, 48 h
# Description: as §5
# HeLa = test: Cell proliferation assay GI50, HeLa; format: cell-based; conditions: Homo sapiens; HeLa cells, 48 h
# Description: as §5
# P388 = test: Cell proliferation assay GI50, drug sensitive P388; format: cell-based; conditions: Mus musculus; P388 (drug sensitive) cells
# Description: as §5
# P388/ADR = test: Cell proliferation assay GI50, drug resistant P388/ADR; format: cell-based; conditions: Mus musculus; P388/ADR (drug resistant) cells
# Description: as §5
Compound,Caspase activity Ratio (net RFU of test compound to control) (T-47D),EC50 (T-47D),Caspase potency EC50 (ZR-75-1),Caspase activity Ratio (net RFU of test compound to control) (ZR-75-1),GI50 (T47-D),GI50 (MCF-7),GI50 (SK-Br-3),GI50 (DLD-1),GI50 (NCI-H23),GI50 (K562),"EC50 (ZR-75-1; Homo sapiens, read-out: Caspase potency EC50)",GI50 (MDA-MB-231),GI50 (PC-3),GI50 (HeLa),GI50 (P388),GI50 (P388/ADR)
"Cc1cccc(C=NNC(=S)NC2CC3C=CC2C3)n1 (stereo not shown) [Example 17, 4-(Bicyclo[2.2.1]hept-5-en-2-yl)-1-(6-methyl-pyridin-2-ylmethylidene)thiosemicarbazide]",3.3,0.866 µM,INACTIVE,2.5,1 µM,0.3 µM,0.75 µM,1.7 µM,3 µM,3 µM,,,,,,
"S=C(NN=Cc1ccccn1)NC1CC2C=CC1C2 (stereo not shown) [Example 16, 4-(Bicyclo[2.2.1]hept-5-en-2-yl)-1-(pyridin-2-ylmethylidene)thiosemicarbazide]",3.5,0.36 µM,,3.0,0.005 µM,0.007 µM,0.005 µM,0.09 µM,0.03 µM,0.05 µM,0.862 µM,0.03 µM,0.03 µM,0.06 µM,0.02 µM,0.02 µM
